According to ChEMBL document CHEMBL1201862, “PubChem BioAssay data set” (2004):
Activity calls are given as the source filed them.

Assays:
[1] = target: T1, High affinity choline transporter 1 (Homo sapiens, UniProt Q9GZV3); experiment: CHT choline uptake inhibitors, dose response, cell-based, HEK-293 hCHT, [3H]-choline uptake (AID 652177); type: functional
T1 sequence (Q9GZV3 whole entry): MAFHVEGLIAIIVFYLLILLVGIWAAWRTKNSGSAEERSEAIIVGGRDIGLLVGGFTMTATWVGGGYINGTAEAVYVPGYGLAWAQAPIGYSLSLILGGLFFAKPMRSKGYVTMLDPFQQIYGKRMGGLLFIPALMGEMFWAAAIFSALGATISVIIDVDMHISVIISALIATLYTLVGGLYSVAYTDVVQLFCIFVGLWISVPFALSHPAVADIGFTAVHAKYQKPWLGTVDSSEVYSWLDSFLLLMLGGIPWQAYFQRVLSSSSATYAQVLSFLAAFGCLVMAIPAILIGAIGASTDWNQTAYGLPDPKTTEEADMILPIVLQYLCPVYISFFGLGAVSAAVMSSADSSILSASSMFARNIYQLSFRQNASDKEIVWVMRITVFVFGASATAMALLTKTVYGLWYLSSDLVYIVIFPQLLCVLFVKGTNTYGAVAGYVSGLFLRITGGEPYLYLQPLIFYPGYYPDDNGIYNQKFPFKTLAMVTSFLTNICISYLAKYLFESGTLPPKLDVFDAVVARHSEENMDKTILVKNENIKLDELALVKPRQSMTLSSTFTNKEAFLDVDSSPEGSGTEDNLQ

[2] = NIH:OVCAR-3 ovarian cancer cell cytotoxicity, dose response, PAX8 inhibitor project, plate reader, dry powder samples (AID 743044); type: functional, cell-based
[3] = HepG2 cell cytotoxicity, dose response, cytotoxicity control, cherry-picked samples (AID 1159577); type: functional, cell-based
[4] = inhibitors of PGC1a acetylation in cells, dose response, cell-based, cherry-picked samples (AID 720514); type: functional;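 further: potency may reflect raised or lowered acetylation signal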
Paired box protein Pax-8 = Paired box protein Pax-8 (Homo sapiens, UniProt Q06710); experiment: inhibitors of PAX8-driven TPO luciferase reporter, dose response, RMG-I cells, cherry-pick (AID 687027); type: functional, cell-based;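 further: luciferase reporter driven by Pax8 target thyroperoxidase promoter measured by SteadyGlo luminescence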
Sequence of Paired box protein Pax-8 (Q06710 whole entry): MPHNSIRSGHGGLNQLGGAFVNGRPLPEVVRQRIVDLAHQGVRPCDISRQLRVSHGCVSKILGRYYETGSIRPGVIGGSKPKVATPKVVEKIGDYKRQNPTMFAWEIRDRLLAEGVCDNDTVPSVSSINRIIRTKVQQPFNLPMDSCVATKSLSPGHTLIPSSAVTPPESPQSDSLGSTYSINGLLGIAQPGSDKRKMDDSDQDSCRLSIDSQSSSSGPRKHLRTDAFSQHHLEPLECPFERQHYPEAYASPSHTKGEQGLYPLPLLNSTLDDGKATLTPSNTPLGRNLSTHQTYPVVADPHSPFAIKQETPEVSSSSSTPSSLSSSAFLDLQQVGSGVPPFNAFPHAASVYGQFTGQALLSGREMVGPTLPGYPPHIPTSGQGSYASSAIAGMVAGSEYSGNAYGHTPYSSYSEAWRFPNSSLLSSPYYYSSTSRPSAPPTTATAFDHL

[5] = IGROV1 ovarian cancer cell cytotoxicity, dose response, PAX8 inhibitor project, plate reader, dry powder samples (AID 743043); type: functional, cell-based; details: IGROV-1
[6] = P. falciparum Dd2 growth inhibitors, dose response, SYBR Green, cherry-picked samples (AID 1159567); type: functional, cell-based
HeLa = experiment: HeLa cell cytotoxicity, dose response, cytotoxicity control, ATP luminescence, cherry-pick samples (AID 687004); type: functional, cell-based; details: Homo sapiens
Cryptococcus neoformans = experiment: Cryptococcus growth inhibition by alamar blue – cell lysis, cherry-picks, replicate tests, mechanism study for C. neoformans antifungal project, dose response (AID 686999); type: functional, organism-based
[7] = target: Matrix metalloproteinase-14 (Homo sapiens, UniProt P50281); experiment: Dose Response confirmation of uHTS hits for a small molecule inhibitors of MT1-MMP activation in a fluorescence assay set 1.; type: functional
[8] = target: SWI/SNF-related matrix-associated actin-dependent regulator of chromatin subfamily A member 2 (Homo sapiens, UniProt P51531); experiment: Luminescence-based cell-based high throughput dose response assay to identify activators of the function of SWI/SNF related, matrix associated, actin dependent regulator of chromatin, subfamily a, member 2 (SMARCA2, BRM).; type: functional
Sequence of SWI/SNF-related matrix-associated actin-dependent regulator of chromatin subfamily A member 2 (P51531 whole entry): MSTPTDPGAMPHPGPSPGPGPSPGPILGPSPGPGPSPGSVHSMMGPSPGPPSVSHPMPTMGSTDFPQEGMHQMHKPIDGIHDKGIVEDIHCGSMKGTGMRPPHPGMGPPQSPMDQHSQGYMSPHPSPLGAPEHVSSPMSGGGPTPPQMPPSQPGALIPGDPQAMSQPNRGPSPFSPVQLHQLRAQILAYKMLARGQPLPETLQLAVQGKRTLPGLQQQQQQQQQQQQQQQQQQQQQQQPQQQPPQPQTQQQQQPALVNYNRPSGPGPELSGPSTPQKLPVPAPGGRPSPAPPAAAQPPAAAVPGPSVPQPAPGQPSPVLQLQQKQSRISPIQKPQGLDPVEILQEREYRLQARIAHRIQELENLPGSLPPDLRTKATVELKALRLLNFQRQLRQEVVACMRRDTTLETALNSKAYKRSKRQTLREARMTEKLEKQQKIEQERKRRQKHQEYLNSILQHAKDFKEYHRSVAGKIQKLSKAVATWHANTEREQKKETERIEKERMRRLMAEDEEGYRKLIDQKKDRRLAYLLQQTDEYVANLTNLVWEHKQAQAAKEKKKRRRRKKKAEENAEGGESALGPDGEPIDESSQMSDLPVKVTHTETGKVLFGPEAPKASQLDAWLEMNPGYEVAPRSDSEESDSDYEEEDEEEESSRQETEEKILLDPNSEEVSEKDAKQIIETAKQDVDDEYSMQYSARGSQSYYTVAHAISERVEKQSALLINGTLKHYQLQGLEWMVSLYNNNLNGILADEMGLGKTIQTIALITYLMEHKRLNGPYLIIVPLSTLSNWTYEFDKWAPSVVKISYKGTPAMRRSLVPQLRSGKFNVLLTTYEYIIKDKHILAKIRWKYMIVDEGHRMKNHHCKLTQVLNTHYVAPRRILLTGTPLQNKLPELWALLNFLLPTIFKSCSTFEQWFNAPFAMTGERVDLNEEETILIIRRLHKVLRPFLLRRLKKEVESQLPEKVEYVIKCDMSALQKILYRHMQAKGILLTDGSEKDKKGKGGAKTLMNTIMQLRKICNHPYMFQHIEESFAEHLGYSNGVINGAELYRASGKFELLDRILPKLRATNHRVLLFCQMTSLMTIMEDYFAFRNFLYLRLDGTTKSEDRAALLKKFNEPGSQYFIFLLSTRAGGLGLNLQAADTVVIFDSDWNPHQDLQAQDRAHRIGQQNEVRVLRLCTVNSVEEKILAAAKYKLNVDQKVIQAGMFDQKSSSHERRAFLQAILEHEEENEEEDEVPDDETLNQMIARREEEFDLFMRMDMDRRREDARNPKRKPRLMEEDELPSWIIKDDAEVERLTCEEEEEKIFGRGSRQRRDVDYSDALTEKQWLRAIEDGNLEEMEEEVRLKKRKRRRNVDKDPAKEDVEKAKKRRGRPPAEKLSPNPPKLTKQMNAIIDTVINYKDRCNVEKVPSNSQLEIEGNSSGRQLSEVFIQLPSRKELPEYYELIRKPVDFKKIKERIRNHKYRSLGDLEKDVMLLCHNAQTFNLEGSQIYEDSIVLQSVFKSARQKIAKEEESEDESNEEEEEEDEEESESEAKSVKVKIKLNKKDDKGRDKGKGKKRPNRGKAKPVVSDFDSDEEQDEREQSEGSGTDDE

[9] = Counterscreen for activators of the function of SWI/SNF related, matrix associated, actin dependent regulator of chromatin, subfamily a, member 2 (SMARCA2, BRM): Luminescence-based cell-based high throughput dose response assay to identify non-selective compounds using the VP16 reporter assay.; type: functional
[10] = HeLa cell cytotoxicity, dose response, cytotoxicity control for MgcRacGAP inhibitor project (AID 624300); type: functional
[11] = target: T2, Rac GTPase-activating protein 1 (Homo sapiens, UniProt Q9H0H5); experiment: MgcRacGAP GTPase-activating activity inhibitors, confirmation, biochemical, ADP Hunter fluorescence, primary and confirmatory (AID 624330); type: functional
T2 sequence (Q9H0H5 whole entry): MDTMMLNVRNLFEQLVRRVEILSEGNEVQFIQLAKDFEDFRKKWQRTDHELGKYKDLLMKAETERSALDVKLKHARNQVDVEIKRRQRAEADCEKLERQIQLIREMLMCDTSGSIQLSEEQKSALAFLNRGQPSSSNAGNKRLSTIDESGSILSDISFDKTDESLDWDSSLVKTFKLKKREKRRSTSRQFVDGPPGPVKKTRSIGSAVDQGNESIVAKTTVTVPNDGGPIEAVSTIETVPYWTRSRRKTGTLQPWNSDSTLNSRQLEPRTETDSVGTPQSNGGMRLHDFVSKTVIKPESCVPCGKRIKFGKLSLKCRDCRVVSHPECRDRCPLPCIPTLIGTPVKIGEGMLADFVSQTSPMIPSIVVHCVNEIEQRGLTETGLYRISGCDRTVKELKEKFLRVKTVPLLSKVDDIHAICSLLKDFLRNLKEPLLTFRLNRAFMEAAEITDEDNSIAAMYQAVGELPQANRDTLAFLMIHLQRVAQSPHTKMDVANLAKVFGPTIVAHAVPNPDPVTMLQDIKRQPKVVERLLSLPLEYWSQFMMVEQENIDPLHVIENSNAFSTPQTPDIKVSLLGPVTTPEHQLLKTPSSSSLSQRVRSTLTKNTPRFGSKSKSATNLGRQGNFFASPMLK

[12] = inhibitors of TNFa-stimulated NF-kB luciferase reporter, dose response, selectivity assay for EBV LMP1 NF-kB inhibitor project, HEK293 LMP1 reporter cells, dry powder, set 2 (AID 624369); type: functional
[13] = inhibitors of LMP1-driven NF-kB reporter, dose response, cell-based, EBV LMP1, luciferase, dry powder, set 2 (AID 624361); type: functional

COc1ccc(C(=O)NCc2nc(C)cs2)cc1OC1CCN(C(C)C)CC1
IC50 [1]: 77.3 µM (inactive)

O=C(Nc1ccc(C(F)(F)F)cc1)N1C[C@@H]2N[C@H](C1)[C@@H]2c1ccc(/C=C/c2ccccc2)cc1
AC50 [2]: 36.8 µM (active) | AC50 [3]: 2.56 µM (active) | AC50 [4]: 1.57 µM (active) | AC50 (Paired box protein Pax-8): 21.7 µM (active) | AC50 [5]: 50.8 µM (active) | AC50 [6]: 2.93 µM (active)

COC(=O)C1=C(C)N(Cc2ccc(F)cc2)C(=S)NC1c1ccc(F)cc1 (stereo unspecified)
AC50 (HeLa): > 52 µM (inactive) | AC50 (Cryptococcus neoformans): 56.1 µM (active)

Cc1cccc[n+]1CC(=O)/C=C1\N(C)c2ccccc2C1(C)C
IC50 [7]: 24.1 µM (inactive)

COc1ccc(-c2nnc(-c3ccc(N(C)C)cc3)o2)cc1
EC50 [8]: > 91.2 µM (inactive) | EC50 [9]: > 91.2 µM (inactive)

Nc1nc(S)c2[nH]c(S)nc2n1
CC50 [10]: 100 µM (active) | IC50 [11]: 112 µM (active)

O=C(C[C@H]1CC[C@@H]2[C@H](COC[C@H](O)CN2Cc2ccc(Oc3ccccc3)cc2)O1)N1CCc2ccccc2C1
AbsAC35 [12]: 121.3 µM | AbsAC35 [13]: 66.11 µM
